In patent US9333193B2, “Compositions and methods for treating tuberculosis” (priority 2010, dated 2016):
Converted amounts (≈) assume the structure as drawn. Like-named read-outs stand apart in the source and are kept apart here.

Assays:
[1] = tested on: Mycobacterium smegmatis mc2155; assay: Anti-mycobacterial activity of nitazoxanides, MIC in Middlebrook 7H9; assay type: cell-based; conditions: Middlebrook 7H9, 37° C.; for MIC: Mycolicibacterium smegmatis, MC2155, read-out: Minimal Inhibitory Concentration, M. smegmatis
Protocol: (§1) (1) Strains: Mycobacterium smegmatis mc2155, Mycobacterium chelonae EOP-1, Mycobacterium marinum ATCC 927, Mycobacterium avium Va14(T), and Mycobacterium abscessus AAy-P-1).
(§2) (2) Medium: Middlebrook 7H9 containing 0.5% (vol/vol) glycerol and 10% (vol/vol) oleic acid-albumin.
(§3) (3) Incubation Temperature: 37° C., except M. marinum 30° C.
(§4) (4) Nitazoxanides: Precipitates were present in wells of nitazoxanides with high concentrations (250-31 μg/mL) except for 162080, 162088, 16b2026, and 16b2031.
(5) Decolorization: Almost all the yellow nitazoxanides, namely 16b1090, 16b1092 and 16b1093, 16b1094, 16b2023, 16b2025, and 16b2026 were decolorized by M. smegmatis strain mc2155. None of the other mycobacterial strains decolorized the compounds. Note that the compound numbers are also referred to herein with the prefix VPC.
(§5) The strains used were Mycobacterium smegmatis mc2155, Mycobacterium chelonae EOP-1, Mycobacterium marinum ATCC 927, Mycobacterium avium Va14(T), and Mycobacterium abscessus AAy-P-1. The medium use was Middlebrook 7H9 containing 0.5% (vol/vol) glycerol and 10% (vol/vol) oleic acid-albumin. Incubation Temperature was 37° C., except for M. marinum at 30° C. For nitazoxanides, precipitates were present in wells of nitazoxanides with high concentrations (250-31 μg/mL) except for 162080, 162088, 16b2026, and 16b2031.
Decolorization: Almost all the yellow nitazoxanides, namely 16b1090, 16b1092 and 16b1093, 16b1094, 16b2023, 16b2025, and 16b2026 were decolorized by M. smegmatis strain mc2155. None of the other mycobacterial strains decolorized the compounds.

[2] = tested on: M. tuberculosis; assay: microbe, parasite or virus in culture; assay type: cell-based, Mycobacterium tuberculosis; set-up: % Inhibit growth, H37Rv / % Inhibit growth, Susceptible / % Inhibit growth, MDR / % Inhibit growth, XDR / inhibition: dose or concentration left out as unconfirmed; conditions: for % Inhibit growth, MDR: MDR strain; for % Inhibit growth, MDR / % Inhibit growth, Susceptible / % Inhibit growth, XDR / % Inhibit growth, H37Rv / Potency against M. tuberculosis in words (Table 1): agar proportion method; for % Inhibit growth, Susceptible: Susceptible strain; for % Inhibit growth, XDR: XDR strain; for % Inhibit growth, H37Rv: strain H37Rv; for inhibition: Mycobacterium tuberculosis
[3] = tested on: Mycobacterium avium Va14(T); assay: Anti-mycobacterial activity of nitazoxanides, MIC in Middlebrook 7H9; assay type: cell-based; conditions: Middlebrook 7H9, 37° C.; for MIC: Mycobacterium avium, read-out: Minimal Inhibitory Concentration, M. avium
Protocol: as §1, §2, §3, §4, §5

[4] = tested on: Mycobacterium marinum ATCC 927; assay: as above; assay type: cell-based; conditions: Middlebrook 7H9, 30° C.; for MIC: Mycobacterium marinum, ATCC927, read-out: Minimal Inhibitory Concentration, M. marinum
Protocol: as §1, §2, §3, §4, §5

[5] = tested on: Mycobacterium chelonae EOP-1; assay: as above; assay type: cell-based; conditions: Middlebrook 7H9, 37° C.; for MIC: read-out: Minimal Inhibitory Concentration, M. chelonae
Protocol: as §1, §2, §3, §4, §5

[6] = tested on: Mycobacterium abscessus AAy-P-1; assay: as above; assay type: cell-based; conditions: Middlebrook 7H9, 37° C.; for MIC: Mycobacteroides abscessus, AAYP1, read-out: Minimal Inhibitory Concentration, M. abscessus
Protocol: as §1, §2, §3, §4, §5

[7] = tested on: TB organisms; conditions: cited from earlier work
[8] = tested on: Mycobacterium tuberculosis; assay: microbe, parasite or virus in culture; conditions: agar proportion
[9] = read-out: % Inhibit growth, MDR
[10] = read-out: % Inhibit growth, XDR
[11] = H37RV, isolate H37Rv (Reference)

CCCCCC(=O)Nc1nc(Cl)c([N+](=O)[O-])s1 [VPC162080]
Minimal Inhibitory Concentration, M. smegmatis [1]: 125 µg/mL
% Inhibit growth, MDR [2]: 95%
% Inhibit growth, Susceptible [2]: 73%
% Inhibit growth, XDR [2]: 90%
% Inhibit growth, H37Rv [2]: 90%
Minimal Inhibitory Concentration, M. avium [3]: 125 µg/mL
Minimal Inhibitory Concentration, M. marinum [4]: 16 µg/mL
Minimal Inhibitory Concentration, M. chelonae [5]: 16 µg/mL
Minimal Inhibitory Concentration, M. abscessus [6]: 0.25 µg/mL

O=C(Nc1nc(Cl)c([N+](=O)[O-])s1)c1ccccc1 [VPC162087]
Minimal Inhibitory Concentration, M. smegmatis [1]: 31 µg/mL
% Inhibit growth, MDR [2]: 100%
% Inhibit growth, Susceptible [2]: 97%
% Inhibit growth, XDR [2]: 100%
% Inhibit growth, H37Rv [2]: 97%
Minimal Inhibitory Concentration, M. avium [3]: 125 µg/mL
Minimal Inhibitory Concentration, M. marinum [4]: 16 µg/mL
Minimal Inhibitory Concentration, M. chelonae [5]: 16 µg/mL
Minimal Inhibitory Concentration, M. abscessus [6]: >250 µg/mL

CC(=O)Oc1ccccc1C(=O)Nc1ncc([N+](=O)[O-])s1 [Nitazoxanide, 2-(acetyloxy)-N-(5-nitro-2-thiazolyl)benzamide, reference compound]
Action against TB in presence of proteins found in serum [7]: inhibited by proteins that would be found in serum
MIC [1]: > 250 µg/mL
MIC [3]: 250 µg/mL (≈ 814 µM)
MIC [4]: 31 µg/mL (≈ 101 µM)
MIC [5]: 63 µg/mL (≈ 205 µM)
MIC [6]: 63 µg/mL (≈ 205 µM)

NCCOc1ccccc1C(=O)Nc1sc([N+](=O)[O-])cc1[N+](=O)[O-] [VPC16b2031, 2-(2-Aminoethoxy)-N-(3,5-dinitrothiophen-2-yl)benzamide]
MIC [1]: 63 µg/mL (≈ 179 µM)
MIC [3]: 63 µg/mL (≈ 179 µM)
MIC [4]: 16 µg/mL (≈ 45.4 µM)
MIC [5]: 125 µg/mL (≈ 355 µM)
MIC [6]: 250 µg/mL (≈ 710 µM)

O=C(Nc1ncc([N+](=O)[O-])s1)c1cccc(C(F)(F)F)c1 [VPC161183, N-(5-Nitrothiazol-2-yl)-3-(trifluoromethyl)benzamide]
inhibition [2, 9]: 70%
inhibition [2, 10]: 50%

O=C(Nc1sc([N+](=O)[O-])cc1[N+](=O)[O-])c1cccs1 [VPC16b1093, N-(3,5-Dinitrothiophen-2-yl)thiophene-2-carboxamide]
MIC [1]: 125 µg/mL (≈ 418 µM)
inhibition [2, 9]: 100%
inhibition [2, 10]: 100%
MIC [3]: 31 µg/mL (≈ 104 µM)
MIC [4]: 31 µg/mL (≈ 104 µM)
MIC [5]: 2 µg/mL (≈ 6.68 µM)
MIC [6]: 1 µg/mL (≈ 3.34 µM)

O=C(Nc1sc([N+](=O)[O-])cc1[N+](=O)[O-])c1ccccc1 [VPC16b1090]
MIC [8, 11]: 4000 µg/mL (≈ 13600 µM)
MIC ([8]; isolate 234 (MDR-TB)): 4000 µg/mL (≈ 13600 µM)
MIC ([8]; isolate 283 (susceptible)): 4000 µg/mL (≈ 13600 µM)
MIC ([8]; isolate 565 (MDR-TB)): 4000 µg/mL (≈ 13600 µM)
MIC ([8]; isolate 694 (MDR-TB)): 2000 µg/mL (≈ 6820 µM)
MIC ([8]; isolate 750 (MDR-TB)): 4000 µg/mL (≈ 13600 µM)
MIC ([8]; isolate 823 (XDR-TB)): 4000 µg/mL (≈ 13600 µM)
MIC ([8]; isolate 971 (MDR-TB)): 2000 µg/mL (≈ 6820 µM)
MIC [1]: 16 µg/mL (≈ 54.6 µM)
inhibition [2, 9]: 100%
inhibition [2, 10]: 100%
Potency against M. tuberculosis in words (Table 1) [2]: most potent
MIC [3]: 8 µg/mL (≈ 27.3 µM)
MIC [4]: 4 µg/mL (≈ 13.6 µM)
MIC [5]: 1 µg/mL (≈ 3.41 µM)
MIC [6]: 0.5 µg/mL (≈ 1.7 µM)

CO[C@H]1/C=C/O[C@@]2(C)Oc3c(C)c(O)c4c(O)c(c(/C=N/N5CCN(C)CC5)c(O)c4c3C2=O)NC(=O)/C(C)=C\C=C\[C@H](C)[C@H](O)[C@@H](C)[C@@H](O)[C@@H](C)[C@H](OC(C)=O)[C@@H]1C [Rifampin, reference compound]
MIC [8, 11]: ≤ 125 µg/mL
MIC ([8]; isolate 234 (MDR-TB)): 16000 µg/mL (≈ 19400 µM)
MIC ([8]; isolate 283 (susceptible)): ≤ 125 µg/mL
MIC ([8]; isolate 565 (MDR-TB)): ≥ 32000 µg/mL
MIC ([8]; isolate 694 (MDR-TB)): ≥ 32000 µg/mL
MIC ([8]; isolate 750 (MDR-TB)): ≥ 32000 µg/mL
MIC ([8]; isolate 823 (XDR-TB)): ≥ 32000 µg/mL
MIC ([8]; isolate 971 (MDR-TB)): ≥ 32000 µg/mL

O=C(Nc1sc([N+](=O)[O-])cc1[N+](=O)[O-])c1ccoc1 [VPC16b1094]
MIC [8, 11]: 4000 µg/mL (≈ 14100 µM)
MIC ([8]; isolate 234 (MDR-TB)): 4000 µg/mL (≈ 14100 µM)
MIC ([8]; isolate 283 (susceptible)): 4000 µg/mL (≈ 14100 µM)
MIC ([8]; isolate 565 (MDR-TB)): 4000 µg/mL (≈ 14100 µM)
MIC ([8]; isolate 694 (MDR-TB)): 4000 µg/mL (≈ 14100 µM)
MIC ([8]; isolate 750 (MDR-TB)): 4000 µg/mL (≈ 14100 µM)
MIC ([8]; isolate 823 (XDR-TB)): 4000 µg/mL (≈ 14100 µM)
MIC ([8]; isolate 971 (MDR-TB)): 4000 µg/mL (≈ 14100 µM)
MIC [1]: 16 µg/mL (≈ 56.5 µM)
inhibition [2, 9]: 100%
inhibition [2, 10]: 100%
Potency against M. tuberculosis in words (Table 1) [2]: most potent
MIC [3]: 16 µg/mL (≈ 56.5 µM)
MIC [4]: 4 µg/mL (≈ 14.1 µM)
MIC [5]: 2 µg/mL (≈ 7.06 µM)
MIC [6]: 2 µg/mL (≈ 7.06 µM)
